Experimental data as given in patent US8623593B1, “GPR 17 agonists and screening assay” (Rheinische Friedrich-Wilhelms-Universität Bonn, priority 2011, dated 2014).

Assays:
GPR17 [1] = target: T1, GPR17 (Homo sapiens, UniProt Q13304); details: reported in WO 2005/103291; cited from earlier work
Target sequence in this assay (Q13304 whole entry, species assumed): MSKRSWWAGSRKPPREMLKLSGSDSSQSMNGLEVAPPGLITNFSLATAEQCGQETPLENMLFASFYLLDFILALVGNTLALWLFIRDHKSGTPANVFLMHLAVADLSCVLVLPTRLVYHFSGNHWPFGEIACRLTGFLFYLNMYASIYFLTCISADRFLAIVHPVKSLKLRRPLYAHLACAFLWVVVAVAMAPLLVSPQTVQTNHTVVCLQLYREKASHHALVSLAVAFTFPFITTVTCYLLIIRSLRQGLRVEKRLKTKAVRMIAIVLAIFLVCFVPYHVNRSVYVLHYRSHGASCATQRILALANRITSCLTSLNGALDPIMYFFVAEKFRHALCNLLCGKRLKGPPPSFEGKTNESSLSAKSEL

GPR17 [2] = target: T1, GPR17; experiment: inhibition of forskolin-stimulated cAMP production in CHO-GPR17 cells; type: cell-based; set-up: expressed in transfected cells; host or cells: Flp-In T-REx CHO cells, expression induced with doxycycline; details: for activation of GPR17: comparison with RA-II-150, FIG. 2
Source text: Two signal transduction pathways that influence the activity of the adenylyl cyclase in oppositional ways can be activated upon receptor activation. Whereas the Gs pathway stimulates the adenylyl cyclase-dependent catalysation of cAMP formation, the Gi pathway inhibits it. The detection of cAMP accumulation is based on the HTRF® technology described above. In this case a monoclonal antibody specific to cAMP was the donor fluorophore while the acceptor fluorophore d2 was fused to cAMP. The analysis of the Gi pathway was based on the direct activation of the adenylyl cyclase, for example, by forskolin. Upon activation, the Gi pathway inhibits the forskolin-dependent activation of the adenylyl cyclase, leading to decreased cAMP accumulation. The inhibition of forskolin-stimulated cAMP accumulation in 1321N1 or CHO cells was performed using the HTRF® cAMP dynamic kit (Cisbio Bioassays, BP 84175, France). Cells were resuspended in assay buffer with 1 mM 3-isobutyl-1-methylxanthine (IBMX) supplemented and dispensed in 384-well microplates at a density of 50,000 cells/well in a volume of 5 μl. After preincubation in assay buffer for 30 min, the cells were stimulated by adding 5 μl of agonist in the respective concentration of forskolin. The final concentration of forskolin was dependent on the cell line which was employed in the assay. Adenylyl cyclase was stimulated with 1 μM forskolin in 1321N1-GPR17 cells and with 10 μM forskolin in CHO-GPR17 cells, followed by incubation for 30 min at room temperature. The reaction was terminated by lysis of the cells, which results from the addition of 5 μl of d2-conjugate followed by the addition of 5 μl of […] (both supplements are diluted in conjugate and lysis buffer). The assay was incubated for 60 min at room temperature and time-resolved FRET signals were measured at an excitation wavelength of 320 nm using the Mithras LB 940 multimode reader (Berthold technologies, D-75323 Bad Wildbad). The evaluation of HTRFR data was performed following the instructions of the kit manufacturer. Data analysis was based on the fluorescence ratio emitted by labeled cAMP (665 nm) over the light emitted by the europium cryptate-labelled anti-cAMP (620 nm). Levels of cAMP were normalised to the amount of cAMP elevated by 10 μM or 1 μM forskolin alone.
Target sequence in this assay (Q13304 29-367): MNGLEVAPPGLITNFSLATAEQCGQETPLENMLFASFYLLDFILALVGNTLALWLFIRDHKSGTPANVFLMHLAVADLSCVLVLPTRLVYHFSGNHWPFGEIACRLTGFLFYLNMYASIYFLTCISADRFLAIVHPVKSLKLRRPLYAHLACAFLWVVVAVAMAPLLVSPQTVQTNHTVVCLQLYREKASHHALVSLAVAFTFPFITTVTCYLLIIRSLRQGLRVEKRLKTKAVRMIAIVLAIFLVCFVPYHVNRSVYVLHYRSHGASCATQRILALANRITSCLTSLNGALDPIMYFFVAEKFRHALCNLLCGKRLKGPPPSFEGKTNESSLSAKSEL

[3] = exposure to air and light; cited from earlier work

| SMILES | amounts needed in the assays (GPR17 [1]) | less potent as compared with RA-II-150 (GPR17 [2]; FIG. 2, forskolin-stimulated cAMP production) [fold] | inhibition of forskolin stimulated adenylylcyclase activity (GPR17 [2]; GPR17 CHO cells, after 5-ALA addition) | activation of GPR17 (GPR17 [2]) | chemical stability [3] |
| --- | --- | --- | --- | --- | --- |
| NCC(=O)CCC(=O)O [5-ALA, 5 amino levulinic acid] | three digit micromolar range | 10.000 | GPR17-independent inhibition | confirm the activation | – |
| NCc1[nH]cc(CCC(=O)O)c1CC(=O)O [PBG, porphobilinogen] | mM range | – | – | failed | rapidly decomposes after exposure to air and light |
